According to the NIST ThermoML archive (doi:10.1021/je200872n):
± gives the expanded uncertainty stated by the source.

Assays:
[1] = mn = molality of the nth substance listed, in mol/kg; settings: 298.15 K, 101 kPa, Liquid; for mass density: Vibrating tube method; for viscosity: Capillary tube (Ostwald / Ubbelohde) method
[2] = 298.15 K, Liquid
[3] = refractive index (Na D-line) (dimensionless); settings: 298.15 K; 101.33 kPa; Liquid; Standard Abbe refractometry

**Q.** With `CCCCn1cc[n+](C)c1.[Br-]` [1-butyl-3-methylimidazolium bromide] + CN(C)C=O as the compound, how does the mass density ([1]; m1 = 0.1012) read?
**A.** 951.01 ± 0.46 kg/m3

**Q.** What about the mass density ([1]; m1 = 0.1527) of the same compound?
**A.** 954.4 ± 0.46 kg/m3

**Q.** What about the mass density ([1]; m1 = 0.197) of the same compound?
**A.** 957.2 ± 0.46 kg/m3

**Q.** For `CCC[n+]1ccn(C)c1.[Br-]` [1-methyl-3-propylimidazolium bromide] + CN(C)C=O, which mass density ([1]; m1 = 0.03) is on record?
**A.** 946.19 ± 0.46 kg/m3

**Q.** What about the mass density ([1]; m1 = 0.0789) of the same compound?
**A.** 949.63 ± 0.46 kg/m3

**Q.** What about the mass density ([1]; m1 = 0.122) of the same compound?
**A.** 952.52 ± 0.46 kg/m3

**Q.** Which results are given for `CCCCCn1cc[n+](C)c1.[Br-]` [1-pentyl-3-methylimidazolium bromide] + CN(C)C=O?
**A.** mass density ([1]; m1 = 0.026): 947.47 ± 0.46 kg/m3; mass density ([1]; m1 = 0.0508): 949.26 ± 0.46 kg/m3; mass density ([1]; m1 = 0.0747): 950.79 ± 0.46 kg/m3

**Q.** With `Oc1ccccc1C=Nc1ccccc1N=Cc1ccccc1O` [2,2'-[1,2-phenylenebis(nitrilomethylidyne)]bis-phenol] + CN(C)C=O as the compound, how does the viscosity ([1]; m1 = 0.01) read?
**A.** 0.802 ± 0.008 mPa·s

**Q.** What about the viscosity ([1]; m1 = 0.0302) of the same compound?
**A.** 0.818 ± 0.008 mPa·s

**Q.** And the viscosity ([1]; m1 = 0.0505)?
**A.** 0.833 ± 0.008 mPa·s

**Q.** And the viscosity ([1]; m1 = 0.0698)?
**A.** 0.847 ± 0.008 mPa·s

**Q.** And the viscosity ([1]; m1 = 0.0851)?
**A.** 0.859 ± 0.008 mPa·s

**Q.** And the viscosity ([1]; m1 = 0.1098)?
**A.** 0.878 ± 0.008 mPa·s

**Q.** And the viscosity ([1]; m1 = 0.1268)?
**A.** 0.89 ± 0.008 mPa·s

**Q.** And the viscosity ([1]; m1 = 0.1507)?
**A.** 0.905 ± 0.008 mPa·s

**Q.** What about the viscosity ([1]; m1 = 0.1705) of the same compound?
**A.** 0.919 ± 0.008 mPa·s

**Q.** What about the mass density ([1]; m1 = 0.0295) of the same compound?
**A.** 946.01 ± 0.46 kg/m3

**Q.** And the mass density ([1]; m1 = 0.051)?
**A.** 947.47 ± 0.46 kg/m3

**Q.** What about the mass density ([1]; m1 = 0.0697) of the same compound?
**A.** 948.75 ± 0.46 kg/m3

**Q.** What about the mass density ([1]; m1 = 0.0894) of the same compound?
**A.** 950.08 ± 0.46 kg/m3

**Q.** And the mass density ([1]; m1 = 0.1106)?
**A.** 951.51 ± 0.46 kg/m3

**Q.** What about the mass density ([1]; m1 = 0.1299) of the same compound?
**A.** 952.82 ± 0.46 kg/m3

**Q.** And the mass density ([1]; m1 = 0.1465)?
**A.** 953.94 ± 0.46 kg/m3

**Q.** What about the mass density ([1]; m1 = 0.1701) of the same compound?
**A.** 955.51 ± 0.46 kg/m3

**Q.** What about the mass density ([1]; m1 = 0.1898) of the same compound?
**A.** 956.83 ± 0.46 kg/m3

**Q.** Which mass density ([1]; m1 = 0.0245) does the source give for `CCCCCCn1cc[n+](C)c1.[Br-]` [3-hexyl-1-methyl-1H-imidazolium bromide] + CN(C)C=O here?
**A.** 945.76 ± 0.46 kg/m3

**Q.** And the mass density ([1]; m1 = 0.0738)?
**A.** 948.9 ± 0.46 kg/m3

**Q.** And the mass density ([1]; m1 = 0.1205)?
**A.** 951.72 ± 0.46 kg/m3

**Q.** Which mass density ([2]; 101 kPa, Vibrating tube method) does the source give for `CN(C)C=O` [dimethylformamide] here?
**A.** 944 ± 0.46 kg/m3

**Q.** What about the viscosity ([2]; 101.33 kPa, Capillary tube (Ostwald / Ubbelohde) method) of the same compound?
**A.** 0.805 ± 0.008 mPa·s

**Q.** And the refractive index [3]?
**A.** 1.4281 ± 0.0004
